Type in all cases: cell-based
Experiment [1] concerns Mannheimia haemolytica MH 6357 (M7/2). Nature of the experiment: MIC, broth-microdilution (CLSI), strain MH 6357. As to conditions: Mannheimia haemolytica M7/2, reference strain (cattle infection strain). As for the experimental part:
(§1) The Minimum inhibitory concentrations (MIC) of compounds according to the invention for a number of veterinary bacterial pathogens were determined by the broth-microdilution method according to CLSI document VETO 1-A4.
(§2) Microdilution trays containing a doubling dilution series of the test compound were used for the tests. The MIC results were interpreted according to the CLSI documents VET01-S3. The lowest concentration of compound at which no visible growth (i.e. no turbidity) detected by the unaided eye was recorded as the MIC.
In general terms: In broth dilution the organism is exposed to a series of concentrations in liquid medium.

Experiment [2] has as its system Mannheimia haemolytica MH 6374 (ATCC 33396). Nature of the experiment: MIC, broth-microdilution (CLSI), strain MH 6374. The note with it: Mannheimia haemolytica ATCC 33396, reference strain. As for the experimental part: as §1, §2
Experiment [3] concerns Mannheimia haemolytica MH 10720 (154). Nature of the experiment: MIC, broth-microdilution (CLSI), strain MH 10720. The note with it: Mannheimia haemolytica 154, BRD field isolate. As for the experimental part:
as §1, §2

The subject of experiment [4] is Mannheimia haemolytica MH 12587 (1071), macrolide-resistance: erm+, E+. Nature of the experiment: MIC, broth-microdilution (CLSI), strain MH 12587. As to conditions: Mannheimia haemolytica 1071, BRD field isolate. As to the method: as §1, §2
In experiment [5] the test system is Mannheimia haemolytica MH 13065 (XB0446-6003.9). Nature of the experiment: MIC, broth-microdilution (CLSI), strain MH 13065. The note with it: Mannheimia haemolytica XB0446-6003.9, BRD field isolate. As for the experimental part:
as §1, §2

Experiment [6] has as its system Mannheimia haemolytica MH 13093 (XB0472-6014.1). Nature of the experiment: MIC, broth-microdilution (CLSI), strain MH 13093. As to conditions: Mannheimia haemolytica XB0472-6014.1, BRD field isolate. As to the method:
as §1, §2

Experiment [7] has as its system Pasteurella multocida PM 6267 (P 2225 (L386)). Nature of the experiment: MIC, broth-microdilution (CLSI), strain PM 6267. As to conditions: Pasteurella multocida P 2225 (L386), reference strain (mouse infection strain). As for the experimental part:
as §1, §2

For experiment [8], the system named is Pasteurella multocida PM 6391 (ATCC 43137). Nature of the experiment: MIC, broth-microdilution (CLSI), strain PM 6391. The note with it: Pasteurella multocida ATCC 43137, reference strain. As to the method: as §1, §2
In experiment [9] the test system is Pasteurella multocida PM 10775 (080130003051). Nature of the experiment: MIC, broth-microdilution (CLSI), strain PM 10775. As to conditions: Pasteurella multocida 080130003051, BRD field isolate. As to the method:
as §1, §2

In experiment [10] the test system is Pasteurella multocida PM 12080 (IV102277-0093). Nature of the experiment: MIC, broth-microdilution (CLSI), strain PM 12080. As to conditions: Pasteurella multocida IV102277-0093, BRD field isolate. As for the experimental part:
as §1, §2

The structures appear in SMILES notation. ≈ marks a conversion by molar mass, not a printed value.

Turning to `CNC(=O)C(NC(=O)c1ccc(C#Cc2ccc(CNC3CC3)cc2)cc1)C(=O)NO` (stereo not shown) [Compound 1], the “MIC MH 6357” value in [1] came out at 0.4 µM (≈ 0.168 µg/mL). For the same compound, the “MIC MH 6374” value in [2] stood at 0.4 µM (≈ 0.168 µg/mL). In [3], the “MIC MH 10720” value was ≤0.1 µM. For the same compound, the “MIC MH 12587” value in experiment [4] came out at 0.8 µM (≈ 0.336 µg/mL). Further, the “MIC MH 13065” value in experiment [5] is 0.4 µM (≈ 0.168 µg/mL). Moreover, in experiment [6], the “MIC MH 13093” value turned out to be 1.6 µM (≈ 0.673 µg/mL). Further, the “MIC PM 6267” value in [7] was ≤0.1 µM. Moreover, the “MIC PM 6391” value in experiment [8] was ≤0.1 µM. The “MIC PM 10775” value in [9] was ≤0.1 µM. In addition, the “MIC PM 12080” value in experiment [10] was ≤0.1 µM.
As for `C=CCNCc1ccc(C#Cc2ccc(C(=O)NC(C(=O)NC)C(=O)NO)cc2)cc1` (stereo not shown) [Compound 2], the “MIC MH 6357” value in experiment [1] came to 0.8 µM (≈ 0.336 µg/mL). Moreover, the “MIC MH 6374” value in experiment [2] was determined as 1.6 µM (≈ 0.673 µg/mL). Besides, in [3], the “MIC MH 10720” value was found to be 0.4 µM (≈ 0.168 µg/mL). In addition, in experiment [4], the “MIC MH 12587” value is 0.8 µM (≈ 0.336 µg/mL). For the same compound, the “MIC MH 13065” value in experiment [5] is 0.8 µM (≈ 0.336 µg/mL). In experiment [6], the “MIC MH 13093” value amounted to 1.6 µM (≈ 0.673 µg/mL). Further, the “MIC PM 6267” value in experiment [7] stood at 0.2 µM (≈ 0.0841 µg/mL). For the same compound, the “MIC PM 6391” value in [8] was 0.4 µM (≈ 0.168 µg/mL). For the same compound, the “MIC PM 10775” value in experiment [9] was ≤0.1 µM. Further, the “MIC PM 12080” value in [10] is ≤0.1 µM.
Take `CNC(=O)C(NC(=O)c1ccc(C#Cc2ccc(CNCCOC)cc2)cc1)C(=O)NO` (stereo not shown) [Compound 3]: the “MIC MH 6357” value in experiment [1] is 1.6 µM (≈ 0.702 µg/mL). Further, the “MIC MH 6374” value in experiment [2] turned out to be 3.1 µM (≈ 1.36 µg/mL). Further, the “MIC MH 10720” value in [3] amounted to 0.8 µM (≈ 0.351 µg/mL). The “MIC MH 12587” value in [4] amounted to 6.3 µM (≈ 2.76 µg/mL). Moreover, in experiment [5], the “MIC MH 13065” value turned out to be 1.6 µM (≈ 0.702 µg/mL). Moreover, the “MIC MH 13093” value in experiment [6] is 1.6 µM (≈ 0.702 µg/mL). Besides, the “MIC PM 6267” value in experiment [7] came out at 0.2 µM (≈ 0.0877 µg/mL). Further, the “MIC PM 6391” value in [8] amounted to 0.4 µM (≈ 0.175 µg/mL). Also, the “MIC PM 10775” value in [9] is ≤0.1 µM. For the same compound, in experiment [10], the “MIC PM 12080” value amounted to 0.4 µM (≈ 0.175 µg/mL).
For the compound `CNC(=O)C(NC(=O)c1ccc(C#Cc2ccc(CN3CCOCC3)cc2)cc1)C(=O)NO` (stereo not shown) [Compound 4], in [1], the “MIC MH 6357” value is 1.6 µM (≈ 0.721 µg/mL). Further, the “MIC MH 6374” value in [2] worked out at 3.1 µM (≈ 1.4 µg/mL). The “MIC MH 10720” value in [3] came out at 0.4 µM (≈ 0.18 µg/mL). Besides, in [4], the “MIC MH 12587” value was determined as 6.3 µM (≈ 2.84 µg/mL). Also, in experiment [5], the “MIC MH 13065” value was found to be 1.6 µM (≈ 0.721 µg/mL). In addition, in [6], the “MIC MH 13093” value amounted to 1.6 µM (≈ 0.721 µg/mL). The “MIC PM 6267” value in experiment [7] was ≤0.1 µM. For the same compound, in experiment [8], the “MIC PM 6391” value is ≤0.1 µM. In experiment [9], the “MIC PM 10775” value is ≤0.1 µM. Further, the “MIC PM 12080” value in experiment [10] was ≤0.1 µM.
As to `CNC(=O)C(NC(=O)c1ccc(C#Cc2ccc(CNCc3ccccc3)cc2)cc1)C(=O)NO` (stereo not shown) [Compound 5], the “MIC MH 6357” value in [1] is 0.4 µM (≈ 0.188 µg/mL). The “MIC MH 6374” value in [2] worked out at 0.8 µM (≈ 0.376 µg/mL). Besides, in experiment [3], the “MIC MH 10720” value was ≤0.1 µM. In addition, the “MIC MH 12587” value in experiment [4] came to 1.6 µM (≈ 0.753 µg/mL). The “MIC MH 13065” value in experiment [5] is 0.8 µM (≈ 0.376 µg/mL). Also, the “MIC MH 13093” value in [6] turned out to be 1.6 µM (≈ 0.753 µg/mL). Moreover, the “MIC PM 6267” value in [7] was ≤0.1 µM. For the same compound, the “MIC PM 6391” value in [8] came out at 0.2 µM (≈ 0.0941 µg/mL). Moreover, the “MIC PM 10775” value in [9] was ≤0.1 µM. Also, the “MIC PM 12080” value in experiment [10] was ≤0.1 µM.
Take `CNC(=O)C(NC(=O)c1ccc(C#Cc2ccc(CNCc3ccc(OC)cc3)cc2)cc1)C(=O)NO` (stereo not shown) [Compound 6]: in experiment [1], the “MIC MH 6357” value worked out at 0.4 µM (≈ 0.2 µg/mL). In addition, in experiment [2], the “MIC MH 6374” value came to 0.8 µM (≈ 0.4 µg/mL). The “MIC MH 10720” value in experiment [3] is ≤0.1 µM. The “MIC MH 12587” value in experiment [4] is 1.6 µM (≈ 0.801 µg/mL). The “MIC MH 13065” value in experiment [5] was determined as 0.8 µM (≈ 0.4 µg/mL). In experiment [6], the “MIC MH 13093” value was 1.6 µM (≈ 0.801 µg/mL). Besides, the “MIC PM 6267” value in experiment [7] is ≤0.1 µM. Moreover, the “MIC PM 6391” value in experiment [8] was 0.2 µM (≈ 0.1 µg/mL). The “MIC PM 10775” value in experiment [9] was ≤0.1 µM. The “MIC PM 12080” value in [10] was ≤0.1 µM.
Consider `CNC(=O)C(NC(=O)c1ccc(C#Cc2ccc(CN3CCCC3)cc2)cc1)C(=O)NO` (stereo not shown) [Compound 7], for which the “MIC MH 6357” value in experiment [1] worked out at 3.1 µM (≈ 1.35 µg/mL). The “MIC MH 6374” value in [2] was 12.5 µM (≈ 5.43 µg/mL). Besides, the “MIC MH 10720” value in [3] is 1.6 µM (≈ 0.695 µg/mL). The “MIC MH 12587” value in experiment [4] turned out to be 12.5 µM (≈ 5.43 µg/mL). Further, the “MIC MH 13065” value in experiment [5] was 12.5 µM (≈ 5.43 µg/mL). In addition, the “MIC MH 13093” value in experiment [6] came out at 6.3 µM (≈ 2.74 µg/mL). Also, in experiment [7], the “MIC PM 6267” value was ≤0.1 µM. For the same compound, the “MIC PM 6391” value in experiment [8] is 0.4 µM (≈ 0.174 µg/mL). Besides, in experiment [9], the “MIC PM 10775” value was 0.2 µM (≈ 0.0869 µg/mL). Moreover, the “MIC PM 12080” value in [10] was 0.8 µM (≈ 0.348 µg/mL).

The values are drawn from patent publication US12157717B2, “Compounds for the treatment of bovine or swine respiratory disease” (Intervet Inc., priority 2018, dated 2024).
